Measurements taken from patent publication US20110082119A1, “PROPHYLACTIC/AMELIORATING OR THERAPEUTIC AGENT FOR NON-ALCOHOLIC STEATOHEPATITIS” (priority 2008, published 2011).
Structures can show the parent of a compound that is named as a salt.

How the values were obtained:
[1] = test system: NASH patient; details: cited from earlier work
[2] = test system: SD rat fed with high-fat high-sucrose diet; assay: Effectiveness in high fat diet-fed rat; format: in vivo; details: HF diet 4 weeks
Experimental: 4 week old male SD rat is allowed to freely take normal diet (F-1, Funabashi Farm) or high-fat high-sucrose diet (TD88137, Harlan Teklad, hereinafter referred to as “HF diet”) for 4 weeks under 12 hour light-dark cycles at 23° C. […] The administration is conducted orally once a day. The normal group and the control group are orally administered with 5% aqueous solution of gum arabic once a day. After 4 weeks, blood is collected for determining neutrophil count and conduct biochemical tests of the plasma.

[3] = test system: NASH patients; assay: Administration to patients with the definitive diagnosis of NASH for one year; format: in vivo, human
Experimental: Patients with the definitive diagnosis of NASH are divided into 8 groups (each group consisting of 15 patients). EPA-E group is administered with Epadel S (Registered Trademark) 900 (containing 900 mg of EPA-E) twice a day. […] Administration of the Melbin (Registered Trademark) tablet is started from once a day, the dose is adequately adjusted depending on the conditions of the patient, and after 5 weeks from the start of the administration, the dose may be increased to twice a day, and after 9 weeks from the start of the administration, the dose may be increased to 3 times a day. The dose is adequately adjusted depending on the conditions of the patient. […] Administration of the Bayaspirin (Registered Trademark) tablet is started from twice a day at 10 tablet in total, and after 5 weeks from the start of the administration, the dose is reduced to once a day at 1 tablet in total. The dose is adequately adjusted depending on the conditions of the patient. […] Candesartan group is administered with Blopress (Registered Trademark) tablet 2 (containing 2 mg of candesartan cilexetil), and candesartan combination group is administered with Blopress (Registered Trademark) tablet 2 and Epadel S (Registered Trademark) 900 twice a day. Administration of the Mevalotin (Registered Trademark) tablet 5 and Blopress (Registered Trademark) tablet 2 is started from 1 tablet once a day, and after 5 weeks from the start of the administration, the dose is increased to twice a day at 2 tablets in total, and after 9 weeks from the start of the administration, the dose is further increased to twice a day at 4 tablets in total. The dose is adequately adjusted depending on the conditions of the patient. Criteria, monitoring, histological tests, statistical analysis of the patients are conducted according to the methods described in Am. J. Gastroenterol. 2001; 96: 2711-2717. Measurement of blood neutrophil count and HOMA-IR, blood biochemical tests such as ALT and AST are occasionally conducted during the administration period of one year, and liver biopsy is conducted after completing the administration for histological evaluation.

[4] = test system: db/db mouse fed with MCD diet (NASH-like lesion in the liver); assay: Effectiveness in methionine-choline deficient diet diabetes model mouse; format: in vivo; details: MCD diet 2 weeks, compared to the control group; for plasma ALT / plasma FFA amount: oral once a day, EPA-E 1000 mg/kg, metformin hydrochloride 80 mg/kg
Experimental: Pharmacological action of EPA-E and/or metformin hydrochloride or olmesartan medoxomil for liver disorder and fibrosis is confirmed by using diabetes model rats that have been fed with MCD diet known to induce a NASH-like lesion in the liver.
7 week old male db/db mouse (Charles River Japan) is allowed to freely take normal diet (F-1, Funabashi Farm) or MCD diet (Dyets, Inc.) for 2 weeks under 12 hour light-dark cycles at 23° C. […] The administration is conducted orally once a day. The normal group and the control group are orally administered with 5% aqueous solution of gum arabic once a day. After 2 weeks, HOMA-IR is measured and blood is collected for biochemical test of the plasma.

[5] = test system: rats fed with methionine-choline-deficient diet (NASH-like lesion in the liver); format: in vivo; details: MCD diet 20 weeks, compared to the control group; for plasma AST / plasma ALT: oral once a day; for plasma AST: EPA-E 1000 mg/kg, acetylsalicylic acid 20 mg/kg; for plasma ALT: EPA-E 1000, metformin hydrochloride 40, acetylsalicylic acid 20, simvastatin 5, valsartan 20 mg/kg
Experimental: Pharmacological action of EPA-E and/or metformin hydrochloride, acetylsalicylic acid, simvastatin, or valsartan on liver disorder and fibrosis is confirmed by using rats that have been fed with methionine-choline-deficient diet (hereinafter referred to as “MCD diet”) known to develop a NASH-like lesion in the liver.
7 week old male Wister rats are allowed to freely take normal diet (F-1, Funabashi Farm) or MCD diet (Dyets, Inc.) for 20 weeks under 12 hour light-dark cycles at 23° C. […] The administration is conducted orally once a day. The normal group and the control group are orally administered with 5% aqueous solution of gum arabic once a day. After 20 weeks, blood is collected for biochemical tests of the plasma, and pathological tests of the liver are also conducted.

[6] = oral once a day, compared to the control group, EPA-E 1000 mg/kg, atorvastatin calcium hydrate 10 mg/kg
[7] = administration period of one year, EPA-E group (Epadel S 900 twice a day) compared to the measurements before the treatment
[8] = one year, Epadel S 900 (900 mg EPA-E) twice a day, compared to the measurements before the treatment
[9] = EPA-E 1000 mg/kg oral once a day
[10] = NASH patient also suffering from hypertension, oral 50 mg/day for 48 weeks, Non-Patent Literature 9
[11] = NASH patient, oral 1500 mg/day for 4 months, Non-Patent Literature 4

Structure (SMILES): CC/C=C\C/C=C\C/C=C\C/C=C\C/C=C\CCCC(=O)OCC [EPA-E, ethyl icosapentate]
- NASH (AST or ALT enzyme, inflammatory cytokine or oxidative stress marker, liver biopsy) ([1]; 2700 mg/day of high purity EPA-E for 12 months, Tanaka et al., Non-Patent Literature 3): amelioration of NASH was demonstrated
- IL-6 [2, 6]: suppressed increase
- TNFα [2, 6]: suppressed increase
- ferritin [2, 6]: suppressed increase
- high sensitivity CPR [2, 6]: suppressed increase
- neutrophil count [2, 6]: suppressed increase
- plasma ALT [2, 6]: suppressed increase
- plasma AST [2, 6]: suppressed increase
- thioredoxin [2, 6]: suppressed increase
- type IV collagen [2, 6]: suppressed increase
- AST [3, 7]: decrease
- HOMA-IR [3, 7]: improved
- IL-6 [3, 7]: decrease
- TNFα [3, 7]: decrease
- adiponectin [3, 7]: increases
- ferritin [3, 7]: decrease
- fibrosis marker [3, 7]: decrease
- high sensitivity CPR [3, 7]: decrease
- thioredoxin [3, 7]: decrease
- pathological test image of the liver tissue, overall rating of fat accumulation grade, inflammation grade and fibrosis stage by Brunt method ([3]; liver biopsy after one year, EPA-E group compared to the condition before the administration): improves
- AZT [3, 8]: decrease
- blood neutrophil count [3, 8]: decrease
- TNFα [4, 9]: suppressed increase
- plasma AST [4, 9]: suppressed increase
- plasma TIMP-1 [4, 9]: suppressed increase
- plasma adiponectin amount [4, 9]: suppressed decrease
- plasma hyaluronic acid [4, 9]: suppressed increase
- plasma type IV collagen [4, 9]: suppressed increase
- plasma ALT [4]: suppressed increase
- plasma FFA amount [4]: suppressed increase
- liver hydroxyproline content [5, 9]: suppressed increase
- plasma TIMP-1 content [5, 9]: suppressed increase
- plasma albumin [5, 9]: suppressed increase
- plasma choline esterase [5, 9]: suppressed increase
- plasma hyaluronic acid [5, 9]: suppressed increase
- plasma total bilirubin [5, 9]: suppressed increase
- plasma total protein [5, 9]: suppressed increase
- plasma type Iv collagen [5, 9]: suppressed increase
- plasma AST [5]: suppressed increase
- plasma ALT [5]: suppressed increase
- fibrosis area of liver ([5]; Masson's trichrome stain, EPA-E 1000 mg/kg oral once a day): suppressed increase

Structure (SMILES): CC(=O)Oc1ccccc1C(=O)O [acetylsalicylic acid]
- improvement of the parameters over the control group ([2]; acetylsalicylic acid 10 mg/kg oral once a day): does not exhibit significant improvement
- effects on plasma and liver parameters like those of the EPA-E group ([5]; acetylsalicylic acid 20 mg/kg oral once a day): does not exhibit effects like those of the EPA-E group
- plasma AST [5]: exacerbated
- plasma ALT [5]: exacerbated

Structure (SMILES): CC(C)c1c(C(=O)Nc2ccccc2)c(-c2ccccc2)c(-c2ccc(F)cc2)n1CC[C@@H](O)C[C@@H](O)CC(=O)O [atorvastatin, atorvastatin calcium hydrate]
- IL-6 [2, 6]: suppressed increase
- TNFα [2, 6]: suppressed increase
- ferritin [2, 6]: suppressed increase
- high sensitivity CPR [2, 6]: suppressed increase
- neutrophil count [2, 6]: suppressed increase
- thioredoxin [2, 6]: suppressed increase
- type IV collagen [2, 6]: suppressed increase

Structure (SMILES): CCCCc1nc(Cl)c(CO)n1Cc1ccc(-c2ccccc2-c2nn[nH]n2)cc1 [losartan]
- ALT [1, 10]: improvement
- ferritin [1, 10]: improvement
- type IV collagen [1, 10]: improvement

Structure (SMILES): CN(C)C(=N)N=C(N)N [metformin, metformin hydrochloride]
- lactic acid level [1, 11]: significant increase
- serum alanine aminotransferase (ALT) level [1, 11]: significant decrease
- HOMA-IR ([4]; metformin hydrochloride 80 mg/kg oral once a day): improved
- plasma ALT [4]: suppressed increase
- plasma FFA amount [4]: suppressed increase
- plasma ALT [5]: suppression of the increase

Structure (SMILES): CCCCC(=O)N(Cc1ccc(-c2ccccc2-c2nnn[nH]2)cc1)[C@H](C(=O)O)C(C)C [valsartan]
- plasma ALT [5]: suppression of the increase
